The source made the active and inactive calls. The rule behind the calls is not given here.
Key:
[1] = biological target: Beta-2 adrenergic receptor (Cavia porcellus) (UniProt Q8K4Z4); test: Agonist activity at beta2 adrenoceptor in guinea pig assessed as relaxation of histamine-induced tracheal ring contraction in the presence of inverse agonist ICI-118551; format: functional, tissue-based; details: Trachea
[2] = biological target: 3',5'-cyclic-AMP phosphodiesterase 4B (Homo sapiens, UniProt Q07343); test: Inhibition of human recombinant PDE4B2-mediated cAMP hydrolysis for 30 mins by colorimetric assay
Sequence of 3',5'-cyclic-AMP phosphodiesterase 4B (Q07343 whole entry): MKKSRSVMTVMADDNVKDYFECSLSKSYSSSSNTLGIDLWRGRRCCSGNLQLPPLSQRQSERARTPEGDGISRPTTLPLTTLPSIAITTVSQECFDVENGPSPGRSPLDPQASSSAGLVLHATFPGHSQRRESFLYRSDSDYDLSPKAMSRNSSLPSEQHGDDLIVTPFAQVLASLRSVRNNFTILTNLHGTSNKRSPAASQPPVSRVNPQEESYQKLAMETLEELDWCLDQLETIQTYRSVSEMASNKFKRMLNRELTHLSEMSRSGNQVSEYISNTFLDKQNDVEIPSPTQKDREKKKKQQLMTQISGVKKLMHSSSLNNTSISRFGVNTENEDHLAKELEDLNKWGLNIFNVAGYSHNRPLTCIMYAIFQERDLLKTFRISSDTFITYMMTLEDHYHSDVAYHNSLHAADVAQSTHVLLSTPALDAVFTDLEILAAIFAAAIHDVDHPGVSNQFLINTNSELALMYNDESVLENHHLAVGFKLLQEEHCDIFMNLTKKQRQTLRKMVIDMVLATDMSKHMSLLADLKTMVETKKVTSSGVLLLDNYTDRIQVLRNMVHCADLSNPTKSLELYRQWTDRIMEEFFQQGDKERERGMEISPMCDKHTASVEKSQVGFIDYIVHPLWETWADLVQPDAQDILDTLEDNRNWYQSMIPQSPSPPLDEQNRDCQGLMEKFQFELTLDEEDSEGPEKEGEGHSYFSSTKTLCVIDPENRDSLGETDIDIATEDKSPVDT

[3] = biological target: T1, Beta-2 adrenergic receptor (Cavia porcellus, UniProt Q8K4Z4); test: Competitive antagonist activity at beta2-adrenoceptor in guinea pig tracheal ring in the presence of N-(5-((1R)-2-(4-(4-(3,4-[…])-1-oxo-4a,5,6,7,8,8a-hexahydrophthalazin-2(1H)-yl)butylamino-1-hydroxyethyl)-2-hydroxyphenyl)formamide; format: functional; details: read-out: pA2 (converted)
T1 sequence (Q8K4Z4 whole entry): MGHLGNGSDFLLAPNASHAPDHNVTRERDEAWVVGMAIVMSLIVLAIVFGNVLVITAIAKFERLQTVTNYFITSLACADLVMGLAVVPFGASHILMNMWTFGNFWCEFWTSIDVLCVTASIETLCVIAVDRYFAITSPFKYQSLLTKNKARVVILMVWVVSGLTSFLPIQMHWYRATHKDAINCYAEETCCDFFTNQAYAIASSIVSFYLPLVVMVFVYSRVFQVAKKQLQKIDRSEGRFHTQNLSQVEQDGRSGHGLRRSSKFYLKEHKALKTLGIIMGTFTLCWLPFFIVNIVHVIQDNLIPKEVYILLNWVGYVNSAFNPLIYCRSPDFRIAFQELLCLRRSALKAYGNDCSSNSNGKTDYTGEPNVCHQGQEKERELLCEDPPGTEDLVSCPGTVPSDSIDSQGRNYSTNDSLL

[4] = biological target: T1, Beta-2 adrenergic receptor; test: Agonist activity at beta2 adrenoceptor in guinea pig assessed as relaxation of histamine-induced tracheal ring contraction; format: functional, tissue-based, Trachea
[5] = Inhibition of PDE4

Sequence of Beta-2 adrenergic receptor (Cavia porcellus) (Q8K4Z4 whole entry, looked up): as the sequence (Q8K4Z4 whole entry) above

SMILES | Activity [1] | IC50 [2] [nM] | Kb [3] [nM] | EC50 [4] [nM] | IC50 [5] [nM]
COc1ccc([C@]2(C#N)CC[C@@H](C(=O)O)CC2)cc1OC1CCCC1 [CILOMILAST] | – | – | – | – | 95
COc1ccc(C2=NNC(=O)C3CCCCC23)cc1OC (stereo not drawn) | – | 520 | – | – | –
COc1ccc(C2=NN(CCCCCCNCC(O)c3ccc(O)c(NC=O)c3)C(=O)C3CCCCC23)cc1OC (stereo not drawn) | – | 251 | – | 50.1 | –
COc1ccc(C2=NN(CCCCCNCC(O)c3ccc(O)c(NC=O)c3)C(=O)C3CCCCC23)cc1OC (stereo not drawn) | – | 257 | – | 20 | –
COc1ccc(C2=NN(CCNCC(O)c3ccc(O)c(NC=O)c3)C(=O)C3CCCCC23)cc1OC (stereo not drawn) | – | 280 | – | 20 | –
CC(C)NCC(O)c1ccc(O)c(O)c1 (stereo not drawn) [ISOPROTERENOL] | – | – | – | 31.6 | –

Continued by falling IC50 [2], values first:

Activity [1] | IC50 [2] [nM] | Kb [3] [nM] | EC50 [4] [nM] | IC50 [5] [nM] | SMILES
– | 520 | – | – | – | O=c1[nH]ncc2ccccc12 [PHTHALAZINONE]
– | 284 | – | 126 | – | COc1ccc(C2=NN(CCCCNC[C@@H](O)c3ccc(O)c(NC=O)c3)C(=O)C3CCCCC23)cc1OC (stereo partly drawn)
– | 278 | – | 0.501 | – | COc1ccc(C2=NN(CCCCNCC(O)c3ccc(O)c(NC=O)c3)C(=O)C3CCCCC23)cc1OC (racemic)
inactive | 265 | 0.708 | 0.1 | – | COc1ccc(C2=NN(CCCCNC[C@H](O)c3ccc(O)c(NC=O)c3)C(=O)C3CCCCC23)cc1OC (stereo partly drawn)

From ChEMBL document CHEMBL1949615, “Dual β2-adrenoceptor agonists-PDE4 inhibitors for the treatment of asthma and COPD” (Bioorg Med Chem Lett, 2012)
